#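 Assay format: 96-well plates, 48-hour exposure. TGI: concentration producing complete growth inhibition.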
# Assays:
# Assay in all cases: NCI anticancer screen, dose series, 48 h
# [1] = test system: NCI-H226 lung
# [2] = test system: NCI-H23 lung
# [3] = test system: CCRF-CEM leukemia
# [4] = test system: XF 498 CNS
# [5] = test system: TK-10 renal
# [6] = test system: HOP-62 NSCLC
# [7] = test system: SNB-78 CNS
# [8] = test system: M14 melanoma
# [9] = test system: LXFL 529 NSCLC
# [10] = test system: SK-MEL-28 melanoma
# [11] = test system: OVCAR-8 ovarian
# [12] = test system: OVCAR-4 ovarian
# [13] = test system: HCT-15 colon
# [14] = test system: HT29 colon
# [15] = test system: SN12C renal
# [16] = test system: SW-620 colon
# [17] = test system: A498 renal
# [18] = test system: LOX IMVI melanoma
# [19] = test system: SK-MEL-5 melanoma
# [20] = test system: HOP-92 NSCLC
# [21] = test system: SF-295 CNS
# [22] = test system: RXF 393 renal
# [23] = test system: RXF-631 renal
# [24] = test system: UO-31 renal
# [25] = test system: U251 CNS
# [26] = test system: HCT-116 colon
# [27] = test system: DMS 114 small cell lung
# [28] = test system: KM20L2 colon
# [29] = test system: IGROV1 ovarian
# [30] = test system: HCC-2998 colon
# [31] = test system: OVCAR-5 ovarian
# [32] = test system: NCI-H522 lung
# [33] = test system: SNB-75 CNS
# [34] = test system: EKVX NSCLC
# [35] = test system: K-562 leukemia
# [36] = test system: HL-60(TB) leukemia
# [37] = test system: M19-MEL melanoma
# [38] = test system: RPMI-8226 leukemia
# [39] = test system: NCI-H460 lung
# [40] = test system: SF-268 CNS
# [41] = test system: COLO 205 colon
# [42] = test system: CAKI-1 renal
# [43] = test system: UACC-62 melanoma
# [44] = test system: DLD-1 colon
# [45] = test system: SR leukemia
# [46] = test system: KM12 colon
# [47] = test system: ACHN renal
# [48] = test system: A549 NSCLC
# [49] = test system: MOLT-4 leukemia
# [50] = test system: DMS 273 small cell lung
# [51] = test system: SNB-19 CNS
# [52] = test system: SF-539 CNS
# [53] = test system: SK-OV-3 ovarian
# [54] = test system: UACC-257 melanoma
# [55] = test system: SK-MEL-2 melanoma
# [56] = test system: OVCAR-3 ovarian
# [57] = test system: HOP-18 NSCLC
# [58] = test system: MALME-3M melanoma
# [59] = test system: 786-0 renal
compound,measurement,setting,value
COc1ccccc1NC(=O)C(=O)C(C(=O)c1ccccc1F)C1OC(=O)c2ccccc21 (configuration not stated),TGI,[1],43.8 µM
same,TGI,[2],57.6 µM
same,TGI,[3],67 µM
same,TGI,[4],> 100 µM
same,TGI,[5],> 100 µM
same,TGI,[6],> 100 µM
same,TGI,[7],> 100 µM
same,TGI,[8],> 100 µM
same,TGI,[9],> 100 µM
same,TGI,[10],> 100 µM
same,TGI,[11],47.2 µM
same,TGI,[12],> 100 µM
same,TGI,[13],69.2 µM
same,TGI,[14],62.5 µM
same,TGI,[15],87.2 µM
same,TGI,[16],> 100 µM
same,TGI,[17],> 100 µM
same,TGI,[18],39.2 µM
same,TGI,[19],> 100 µM
same,TGI,[20],> 100 µM
same,TGI,[21],> 100 µM
same,TGI,[22],68.4 µM
same,TGI,[23],67.8 µM
same,TGI,[24],98.7 µM
same,TGI,[25],31.1 µM
same,TGI,[26],44.3 µM
same,TGI,[27],64.3 µM
same,TGI,[28],58.2 µM
same,TGI,[29],> 100 µM
same,TGI,[30],28.8 µM
same,TGI,[31],> 100 µM
same,TGI,[32],35.7 µM
same,TGI,[33],62.8 µM
same,TGI,[34],> 100 µM
same,TGI,[35],> 100 µM
same,TGI,[36],56.5 µM
same,TGI,[37],61.6 µM
same,TGI,[38],69.6 µM
same,TGI,[39],74.7 µM
same,TGI,[40],> 100 µM
same,TGI,[41],43.6 µM
same,TGI,[42],86.7 µM
same,TGI,[43],34.9 µM
same,TGI,[44],> 100 µM
same,TGI,[45],60.7 µM
same,TGI,[46],64 µM
same,TGI,[47],> 100 µM
same,TGI,[48],> 100 µM
same,TGI,[49],> 100 µM
same,TGI,[50],> 100 µM
same,TGI,[51],64 µM
same,TGI,[52],66.1 µM
same,TGI,[53],99.7 µM
same,TGI,[54],> 100 µM
same,TGI,[55],> 100 µM
CC(=O)N1[C@H](C(=O)O)CS[C@H]1c1ccc(F)cc1,TGI,[1],> 100 µM
same,TGI,[2],> 100 µM
same,TGI,[3],> 100 µM
same,TGI,[5],> 100 µM
same,TGI,[6],> 100 µM
same,TGI,[7],> 100 µM
same,TGI,[8],> 100 µM
same,TGI,[9],> 100 µM
same,TGI,[10],> 100 µM
same,TGI,[11],> 100 µM
same,TGI,[12],> 100 µM
same,TGI,[13],> 100 µM
same,TGI,[14],> 100 µM
same,TGI,[15],> 100 µM
same,TGI,[16],> 100 µM
same,TGI,[17],> 100 µM
same,TGI,[56],> 100 µM
same,TGI,[18],> 100 µM
same,TGI,[19],> 100 µM
same,TGI,[20],> 100 µM
same,TGI,[21],> 100 µM
same,TGI,[22],> 100 µM
same,TGI,[23],> 100 µM
same,TGI,[24],> 100 µM
same,TGI,[57],> 100 µM
same,TGI,[26],78.7 µM
same,TGI,[27],> 100 µM
same,TGI,[29],> 100 µM
same,TGI,[30],> 100 µM
same,TGI,[31],> 100 µM
same,TGI,[33],> 100 µM
same,TGI,[35],> 100 µM
same,TGI,[36],> 100 µM
same,TGI,[37],> 100 µM
same,TGI,[39],> 100 µM
same,TGI,[40],> 100 µM
same,TGI,[41],> 100 µM
same,TGI,[42],> 100 µM
same,TGI,[58],> 100 µM
same,TGI,[45],> 100 µM
same,TGI,[47],> 100 µM
same,TGI,[48],> 100 µM
same,TGI,[49],> 100 µM
same,TGI,[51],> 100 µM
same,TGI,[52],> 100 µM
same,TGI,[59],> 100 µM
same,TGI,[54],> 100 µM

# — PubChem BioAssay (NCI)
